Among the data in US8710060B2, “Piperazinyl methyl phenyl cyclohexane compound” (Daiichi Sankyo Company, Limited, priority 2010, dated 2014) are EC50 values, retold here.

Structures can show the parent of a compound that is named as a salt.

In the experiment the test system is longitudinal muscle strip from the duodenal smooth muscle layer. Kind of experiment: Measurement of intestinal contractile activity (Magnus organ bath, cumulative dosing). As to conditions: Oryctolagus cuniculus; male NZW rabbit duodenal longitudinal muscle strip, Krebs solution 31° C., test compound 0.01 nM to 10 μM cumulative dosing; contraction by carbachol 10 μM taken as 100%. How it is done: Bioactivity Test (Measurement of Intestinal Contractile Activity)
A male NZW rabbit (body weight: 2.5 to 3.0 kg, KITAYAMA LABES CO., LTD., NAGANO) was used.
Carbachol (carbamylcholine chloride, Sigma-Aldrich Japan K.K.) was purchased and used. Each test compound was dissolved in dimethyl sulfoxide (DMSO, Sigma-Aldrich Japan K.K.), and then suspended in physiological saline. Carbachol was dissolved in physiological saline.
(3) Experimental Method and Results
Pentobarbital sodium (Kyoritsu Seiyaku Corporation, Osaka) was administered to the rabbit through the auricular vein, and the rabbit was euthanized by exsanguination under anesthesia. Thereafter, the duodenum was excised from the rabbit and rapidly rinsed with Krebs solution (NaCl 120.0 mM, KCl 4.7 mM, CaCl2 2.4 mM, KH2PO4 1.0 mM, MgSO4 1.2 mM, NaHCO3 24.5 mM, and glucose 5.6 mM, pH 7.4). Then, a longitudinal muscle strip (length: 10 mm, width: 3 mm) was prepared from the duodenal smooth muscle layer obtained by stripping off the mucosal layer from the duodenum. The prepared strip was mounted in an organ bath and contained in 20 mL of Krebs solution gassed with 95% O2 and 5% CO2 at 31° C. so as to suppress excessive locomotion, and a tension of 1 g was applied thereto. The strip was left to stand for 1 hour or more while replacing the Krebs solution every 15 minutes until the strip was equilibrated. Before starting the experiment, stimulation with carbachol at 10 μM was repeatedly applied until a reproducible contraction was obtained. The contractile activity was measured with an FD pickup (TB-611T, Nihon Kohden Corporation, Tokyo) and recorded on a pen recorder (RECTI HORIZ-8K, Sanei, Tokyo). Each test compound was added to the Krebs solution at 0.01 nM to 10 μM, and the strip was contracted by cumulative dosing. The contractile activity at each concentration was determined when the contractile activity at the time of stimulation with carbachol at 10 μM was taken as 100%, and the EC50 value of each test compound was determined. The EC50 values are shown below.
As usually defined, the EC50 is the concentration that produces a half-maximal response. Take `C[C@H]1CN(Cc2ccc(N(C)C(=O)[C@H]3CC[C@H](Oc4ccc(F)cc4)CC3)cc2)CCN1` [Example 1, Trans-4-(4-fluorophenoxy)-N-methyl-N-(4-{[(3S)-3-methylpiperazin-1-yl]methyl}phenyl)cyclohexanecarboxamide]: a half-maximal effect (EC50) was put at 28 nM. On to `Cc1cc(N(C)C(=O)[C@H]2CC[C@H](Oc3ccc(F)cn3)CC2)ccc1CN1CCN[C@@H](C)C1` [Example 4, Trans-4-[(5-fluoropyridin-2-yl)oxy]-N-methyl-N-(3-methyl-4-{[(3S)-3-methylpiperazin-1-yl]methyl}phenyl)cyclohexanecarboxamide hydrochloride], for which it took 2.5 nM to reach a half-maximal effect (EC50). As to `Cc1cc(N(C)C(=O)[C@H]2CC[C@H](Oc3cccc(CO)c3)CC2)ccc1CN1CCN[C@@H](C)C1` [Example 5, Trans-4-[3-(hydroxymethyl)phenoxy]-N-methyl-N-(3-methyl-4-{[(3S)-3-methylpiperazin-1-yl]methyl}phenyl)cyclohexanecarboxamide hydrochloride], the response was half-maximal at 7.3 nM (EC50). `CCOC(=O)Cc1cccc(O[C@H]2CC[C@H](C(=O)N(C)c3ccc(CN4CCN[C@@H](C)C4)c(C)c3)CC2)c1` [Example 16, Ethyl [3-({trans-4-[methyl(3-methyl-4-{[(3S)-3-methylpiperazin-1-yl]methyl}phenyl)carbamoyl]cyclohexyl}oxy)phenyl]acetate hydrochloride] gave an EC50 of 2.4 nM. Against the preceding compound, the EC50 is about 3-fold lower. For `Cc1cc(N(C)C(=O)[C@H]2CC[C@H](Oc3ccnc(C#N)c3)CC2)ccc1CN1CCN[C@@H](C)C1` [Example 22, Trans-4-[(2-cyanopyridin-4-yl)oxy]-N-methyl-N-(3-methyl-4-{[(3S)-3-methylpiperazin-1-yl]methyl}phenyl)cyclohexanecarboxamide hydrochloride] the value was 4.8 nM; for `Cc1cc(N(C)C(=O)[C@H]2CC[C@H](Oc3cccc(CC(=O)NC(C)C)c3)CC2)ccc1CN1CCN[C@@H](C)C1` [Example 30, Trans-4-{3-[2-(isopropylamino)-2-oxoethyl]phenoxy}-N-methyl-N-(3-methyl-4-{[(3S)-3-methylpiperazin-1-yl]methyl}phenyl)cyclohexanecarboxamide hydrochloride], 3 nM. In turn, `Cc1cc(N(C)C(=O)[C@H]2CC[C@H](Oc3cccc(CC(=O)NC(C)(C)C)c3)CC2)ccc1CN1CCN[C@@H](C)C1` [Example 33, Trans-4-{3-[2-(tert-butylamino)-2-oxoethyl]phenoxy}-N-methyl-N-(3-methyl-4-{[(3S)-3-methylpiperazin-1-yl]methyl}phenyl)cyclohexanecarboxamide] had an EC50 of 1.5 nM. This EC50 is about 2-fold lower than that of the compound before. Turning to `Cc1cc(N(C)C(=O)[C@H]2CC[C@H](Oc3cccc(CC(=O)N(C)C(C)C)c3)CC2)ccc1CN1CCN[C@@H](C)C1` [Example 34, Trans-4-(3-{2-[isopropyl(methyl)amino]-2-oxoethyl}phenoxy)-N-methyl-N-(3-methyl-4-{[(3S)-3-methylpiperazin-1-yl]methyl}phenyl)cyclohexanecarboxamide], the EC50 was found to be 2.1 nM. Take `Cc1cc(N(C)C(=O)[C@H]2CC[C@H](Oc3cccc(CS(C)(=O)=O)c3)CC2)ccc1CN1CCN[C@@H](C)C1` [Example 42, hydrochloride]: the EC50 turned out to be 4.8 nM. Compared with the last compound, the EC50 is about 2.3-fold higher. Consider `COCCOCc1cccc(O[C@H]2CC[C@H](C(=O)N(C)c3ccc(CN4CCN[C@@H](C)C4)c(C)c3)CC2)c1` [Example 53, Trans-4-{3-[(2-methoxyethoxy)methyl]phenoxy}-N-methyl-N-(3-methyl-4-{[(3S)-3-methylpiperazin-1-yl]methyl}phenyl)cyclohexanecarboxamide hydrochloride], for which the 50% effective concentration (EC50) is 6.8 nM. In turn, `Cc1cc(N(C)C(=O)[C@H]2CC[C@H](Oc3cccc(COC[C@@H](C)O)c3)CC2)ccc1CN1CCN[C@@H](C)C1` [Example 56, Trans-4-[3-({[(2R)-2-hydroxypropyl]oxy}methyl)phenoxy]-N-methyl-N-(3-methyl-4-{[(3S)-3-methylpiperazin-1-yl]methyl}phenyl)cyclohexanecarboxamide hydrochloride] showed an EC50 of 1.2 nM. Then `Cc1cc(N(C)C(=O)[C@H]2CC[C@H](Oc3cccc(COCC(C)(C)O)c3)CC2)ccc1CN1CCN[C@@H](C)C1` [Example 57, Trans-4-{3-[(2-hydroxy-2-methylpropoxy)methyl]phenoxy}-N-methyl-N-(3-methyl-4-{[(3S)-3-methylpiperazin-1-yl]methyl}phenyl)cyclohexanecarboxamide hydrochloride], with 11.3 nM; and `Cc1cc(N(C)C(=O)[C@H]2CC[C@H](Nc3cccc(COCC(C)(C)O)c3)CC2)ccc1CN1CCN[C@@H](C)C1` [Example 58, Trans-4-({3-[(2-hydroxy-2-methylpropoxy)methyl]phenyl}amino)-N-methyl-N-(3-methyl-4-{[(3S)-3-methylpiperazin-1-yl]methyl}phenyl)cyclohexanecarboxamide hydrochloride], with 0.9 nM.
